Data: patent US8802082B2, “Rhodamine derivatives for photodynamic diagnosis and treatment” (Université de Montreal, priority 1999, dated 2014)

Columns and labels:
[1] = system: K-562 cell line; test: In vitro phototoxicity, cell viability in the K-562 cell line procedure (argon ion laser 514.5 nm); assay type: cell-based
Experimental: To ascertain the photochemotherapeutic potential of 4, 5-dibromorhodamine 110 n-butyl ester hydrobromide (DBBE), in vitro phototoxicity was evaluated in the K-562 cell line procedure described. The cells were incubated with increasing concentrations of DBBE and the cell viability was measured at different time points following photodynamic therapy.
The photo toxicity in vitro of rhodamine B n-butyl ester (RBBE) was evaluated in the K-562 cell line procedure, in order to assess its photochemotherapeutic potential. Comparison was made to the induced phototoxicity of rhodamine 123 (RH123) and of rhodamine nB-butyl ester hydrochloride. Cell viability was evaluated 2 and 20 hours after photodynamic therapy. […] Rhodamine 123 has no effect on cell viability, even at exposures of 5 J/cm^2. Phototoxicity of 4,5-dibromorhodamine 110 n-butyl ester hydrobromide and rhodamine B n-butyl ester hydrochloride were only assessed against the cell line K562. However, we anticipate that their activity will be similar against T cells.

[2] = system: normal mouse long term culture of bone marrow and hematopoietic colonies; test: Phototoxicity against hematopoietic progenitor cell cultures (long term culture of bone marrow, semi-solid colony assays); assay type: cell-based
Text: However, as reported for rhodamine 123, the LTC (Long Term Culture) establishment is more sensitive to the dyes but the number of viable committed precursor and stem cells remains unaffected. […] This is in agreement with results obtained previously in other laboratories using rhodamine 123.

Row | SMILES | cell viability after photodynamic therapy ([1]; 10 μg/ml, 0.5 J/cm^2 at 514.5 nm, less than 24 hours after irradiation) | establishment of normal mouse long term culture of bone marrow and formation of hematopoietic colonies in semi-solid assays after photodynamic therapy [2] | cell viability of K562 cells after photodynamic therapy ([1]; 10 µg/ml, 5 J/cm^2 argon ion laser 514.5 nm, less than 20 hours after irradiation) | effect on cell viability ([1]; even at exposures of 5 J/cm^2)
1 | Br.CCCCOC(=O)c1ccccc1-c1c2ccc(=N)c(Br)c-2oc2c(Br)c(N)ccc12 [DBBE, 4,5-dibromorhodamine 110 (2-(4,5-dibromo-6-amino-3-imino-3H-xanthen-9-yl)-benzoic acid) n-butyl ester hydrobromide] | completely suppress | minimally impaired |  | 
2 | CCCCOC(=O)c1ccccc1-c1c2ccc(=NCC)cc-2oc2cc(N(CC)CC)ccc12.Cl [RBBE, Rhodamine B n-butyl ester (2-(6-diethyl amino-3-ethyl imino-3H-xanthen-9-yl)-benzoic acid) n-butyl diester hydrochloride] |  | minimally impaired | significantly suppress | 
3 | COC(=O)c1ccccc1-c1c2ccc(=N)cc-2oc2cc(N)ccc12.Cl [Rhodamine 123, Rhodamine 123 (2-(6-amino-3-imino-3H-xanthen-9-yl)benzoic acid methyl ester) hydrochloride, reference compound] |  | minimally impaired |  | no effect
